Measurements taken from patent US20260055108A1, “TRIAZINE COMPOUNDS AND USES THEREOF” (HUTCHMED LIMITED, priority 2022, published 2026).
Where two headings read alike, the source gives them in different places. Blank lines part the entries; values can stand above or below the compound they belong to.

Key:
[1] = biological target: Recombinant human Menin protein (2-610) / MLL polypeptide binding (Homo sapiens (Human), UniProt O00255); assay: Menin and MLL protein binding at a molecular level (fluorescence polarization method); conditions: inhibition of Menin / MLL polypeptide binding
Sequence of Recombinant human Menin protein (2-610) / MLL polypeptide binding (O00255 2-610): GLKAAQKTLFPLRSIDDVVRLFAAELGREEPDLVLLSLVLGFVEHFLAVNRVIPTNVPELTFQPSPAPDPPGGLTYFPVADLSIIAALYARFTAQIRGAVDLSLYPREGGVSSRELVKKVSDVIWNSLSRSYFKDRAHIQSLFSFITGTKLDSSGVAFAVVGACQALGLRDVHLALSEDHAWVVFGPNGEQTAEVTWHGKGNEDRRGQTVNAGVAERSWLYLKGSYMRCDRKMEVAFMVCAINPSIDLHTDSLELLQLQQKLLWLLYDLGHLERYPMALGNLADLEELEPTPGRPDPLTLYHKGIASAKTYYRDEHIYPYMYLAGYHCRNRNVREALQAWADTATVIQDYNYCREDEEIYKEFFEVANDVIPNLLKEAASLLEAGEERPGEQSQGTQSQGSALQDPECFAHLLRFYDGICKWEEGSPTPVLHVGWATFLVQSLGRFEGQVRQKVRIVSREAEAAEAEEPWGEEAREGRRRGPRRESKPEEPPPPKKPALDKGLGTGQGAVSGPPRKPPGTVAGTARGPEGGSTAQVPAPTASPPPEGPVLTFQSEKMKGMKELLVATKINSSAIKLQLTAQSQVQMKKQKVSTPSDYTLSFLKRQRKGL
Source text: Example 3: Determination of the Activity of the Compounds of the Present Invention on Menin and MLL Protein Binding at a Molecular Level (Fluorescence Polarization Method)
1. Reagents, Materials and Instruments:
• Recombinant human Menin protein (2-610): ChemPartner, CP2021020801; • MLL polypeptide (6-FAM-Ahx-SG-40): GL Biochem, 865700; • Trizma® hydrochloride buffer solution (Tris): Sigma, T2194-1 L; • NaCl: Invitrogen, AM9760G; • TCEP: Sigma, 646547; • DMSO: Sigma, D4540; • 384-well plate: Corning, 4514; • Envision: PerkinElmer.
2. Preparation of Reaction Solutions
• 1) Buffer solution: 20 mL of Tris and 4 mL of NaCl were added respectively to 376 mL of ddH2O, with pH adjusted to 7.5, and TCEP was added before testing with a dilution ratio of 1:500. • 2) 5× test compounds: the test compound was subjected to gradient dilution with the buffer solution to 5-fold the reaction concentration, so that the final concentrations of the compound were 1.000, 0.333, 0.111, 0.037, 0.012, 0.004, 0.001 and 0.0005 μM, respectively. • 3) 2.5× Menin protein reaction solution: the Menin protein was diluted to 5 nM with the buffer solution. • 4) 2.5×MLL polypeptide reaction solution: the MLL polypeptide was diluted to 5 nM with the buffer solution.
1) Binding Reaction (20 μL System)
4 μL of 5× test compound was added to each reaction well of the 384-well plate, and the corresponding volume of 10% DMSO was added to the control wells. Except the control wells, 8 μL of Menin protein reaction solution was added to each well. The reaction solution was incubated at room temperature for 30 minutes, and then 8 μL of MLL polypeptide reaction solution was added to each well. The final concentrations of DMSO in the test compound wells and control wells were all 2%. The 384-well plate was sealed and incubated at room temperature for 30 minutes in the dark.
Three control groups were set up: • a blank control group only containing a buffer solution; • a negative control group only containing MLL polypeptide reaction solution; and • a positive control group containing Menin protein reaction solution and MLL polypeptide reaction solution.
The vertical polarization S value and the horizontal polarization P value (excitation wavelength was 480 nm, and emission wavelength was 535 nm) were measured with Envision.
Corrected S is the S value of the negative control group—the S value of the blank control group
Corrected P is the P value of the negative control group—the P value of the blank control group
(§1) • calculated by using software XL-Fit™ (version 5.3) supplied by ID Business Solutions (Guildford, UK), which is an additional software to Microsoft Excel.

[2] = test system: MV-4-11 cells (human acute myelogenous leukemia cell line carrying MLL-AF4 mutation); assay: Cell proliferation assay, MV-4-11 (CellTiter-Glo); assay type: cell-based
Description: Example 4 Cell Proliferation Assay
MV-4-11 (ATCC, CRL-9591), a human acute myelogenous leukemia cell line carrying MLL-AF4 mutation. Cells were cultured in an IMDM medium containing 10% heat-inactivated fetal bovine serum (HIFBS) and supplemented with 50 μM β-mercaptoethanol.
2. Reagents, Materials and Instruments:
• IMDM culture solution: GIBCO, 12440-053; • HIFBS: GIBCO, 10100-147; • β-mercaptoethanol: Sigma, M3148; • CellTiter-Glo® 2.0 assay kit (CTG): Promega, G9243; • DMSO: Sigma, D4540; • 96-well cell culture plate: Corning, 3903; • Envision: PerkinElmer.
MV-4-11 cells were resuspended in a medium, added to a 96-well plate at a density of 3000 cells/well with a volume of 100 μL/well, and cultured in a cell incubator at 5% CO2 and 37° C. for 4 hours. The test compound subjected to gradient dilution with the medium was added to a cell culture plate, and the final concentrations of the compound were 1.100, 0.367, 0.122, 0.041, 0.014, 0.005, 0.002 and 0.001 μM, respectively. The corresponding volume of DMSO diluent was added to a blank control well, and the final concentrations of DMSO in the experimental group and control group were both 0.1%. The cell plate was placed in a cell incubator at 5% CO2 and 37° C. and cultured for 3 days.
On day 0 and day 3 of the treatment, 50 μL/well CTG reagent was added to the cell plate and shaken at room temperature in the dark for 10 min, and then the chemiluminescence value of each well was measured with Envision.
[formula] • wherein: • luminescence valuetest sample: the chemiluminescence value of a cell well treated with the test compound for 3 days. • luminescence valueday 0: the chemiluminescence value of a cell well at day 0. • luminescence valuecell well: the chemiluminescence value of a cell well not treated with the compound for 3 days.
as §1

[3] = Homo sapiens, MV4-11, 72 h, MV-4-11 cells, 3 days treatment, CellTiter-Glo, read-out: GI50

SMILES: CC(C)n1nccc1-c1cc(F)ccc1Oc1nncnc1N1CC2(CCN(CC3CCN(c4ccc(C(F)(F)F)nn4)CC3)CC2)C1 [Compound 91]
IC50 [1]: 3.1 nM
GI50 [2, 3]: 13 nM

SMILES: CCN(C(=O)c1cc(F)ccc1Oc1nncnc1N1CC2(CCN(CC3CCN(C(=O)C4(C(=O)N(C)C)CC4)CC3)CC2)C1)C(C)C [Compound 19, 2-((5-(7-((1-(1-(dimethylcarbamoyl)cyclopropane-1-carbonyl)piperidin-4-yl)methyl)-2,7-diazaspiro[3.5]nonan-2-yl)-1,2,4-triazin-6-yl)oxy)-N-ethyl-5-fluoro-N-isopropylbenzamide]
GI50 ([2]; Homo sapiens, MV4-11, 72 h): 667 nM

SMILES: CCN(C(=O)c1cc(F)ccc1Oc1nncnc1N1CC2(CCN(CC3CCN(C(=O)C4(C(F)(F)F)CC4)CC3)CC2)C1)C(C)C [Compound 2]
IC50 [1]: 30 nM
GI50 [2, 3]: 39 nM

SMILES: CCN(C(=O)c1cc(F)ccc1Oc1nncnc1N1CC2(CCN(Cc3ccc4[nH]c(C#N)cc4c3C)CC2)C1)C(C)C [Compound 66]
IC50 [1]: 1.2 nM
GI50 [2, 3]: 3 nM

SMILES: COc1cc(N2CCC(CN3CCC4(CC3)CN(c3ncnnc3Oc3ccc(F)cc3)C4)CC2)nnc1OC [Compound 102]
IC50 [1]: 15.9 nM
GI50 [2, 3]: 28 nM

SMILES: CCN(C(=O)c1cc(F)ccc1Oc1nncnc1N1CC2(CCN(Cc3ccc(-c4ccccn4)cc3)CC2)C1)C(C)C [Compound 124]
IC50 [1]: > 200 nM
GI50 [2, 3]: 505 nM

SMILES: CCN(C(=O)c1cc(F)ccc1Oc1nncnc1N1CC2(CCN(Cc3ccc4c(cc(C(N)=O)n4CCO)c3C)CC2)C1)C(C)C [Compound 158]
IC50 [1]: 212 nM
GI50 [2, 3]: 131 nM

SMILES: CCN(C(=O)c1cc(F)ccc1Oc1nncnc1N1CC2(CCN(Cc3ccc4oc(C(=O)NC)cc4c3)CC2)C1)C(C)C [Compound 74]
IC50 [1]: 418 nM
GI50 [2, 3]: 176 nM

SMILES: CCN(C(=O)c1cc(F)ccc1Oc1nncnc1N1CC2(CCN(CC3CCC(n4ccccc4=O)CC3)CC2)C1)C(C)C (centres unmarked) [Compound 122]
IC50 [1]: > 200 nM
GI50 [2, 3]: 119 nM

SMILES: CCN(C(=O)c1cc(F)ccc1Oc1nncnc1N1CC2(CCN(Cc3ccc4nccn4c3)CC2)C1)C(C)C [Compound 63]
IC50 [1]: > 1000 nM

SMILES: COc1cc(N2CCC(CN3CCC4(CC3)CN(c3ncnnc3Oc3ccc(F)c5c3cnn5C(C)C)C4)CC2)nnc1OC [Compound 104]
IC50 [1]: > 1000 nM
GI50 [2, 3]: > 3300 nM

SMILES: CCNC(=O)c1cc(F)ccc1Oc1nncnc1N1CC2(CCN(CC3CCN(c4cc(OC)c(OC)nn4)CC3)CC2)C1 [Compound 179, (Z)-2-((5-(7-((1-(5,6-dimethoxypyridazin-3-yl)piperidin-4-yl)methyl)-2,7-diazaspiro[3.5]nonan-2-yl)-1,2,4-triazin-6-yl)oxy)-N-ethyl-5-fluorobenzimidic acid]
IC50 [1]: 560 nM
GI50 ([2]; MV-4-11 cells, 3 days treatment, CellTiter-Glo, read-out: GI50): 155 nM

SMILES: COc1cc(N2CCC(CN3CCC4(CC3)CN(c3ncnnc3Oc3ccc(Cl)cc3)C4)CC2)nnc1OC [Compound 103]
IC50 [1]: 114 nM
GI50 [2, 3]: 107 nM

SMILES: CCN(C(=O)c1cc(F)ccc1Oc1nncnc1N1CC2(CCN(Cc3ccc4c(cc(C#N)n4C4COC4)c3C)CC2)C1)C(C)C [Compound 130]
IC50 [1]: 2.7 nM
GI50 [2, 3]: 9 nM

SMILES: CCN(C(=O)c1cc(F)ccc1Oc1nncnc1N1CC(C2(N(C)Cc3ccc4c(cc(C#N)n4CCO)c3C)CC2)C1)C(C)C [Compound 153]
IC50 [1]: 5.2 nM
GI50 [2, 3]: 18 nM

SMILES: CCN(C(=O)c1cc(F)ccc1Oc1nncnc1N1CC2(CCN(Cc3ccc(NS(C)(=O)=O)cc3C)CC2)C1)C(C)C [Compound 23]
IC50 [1]: 23.2 nM
GI50 [2, 3]: 56 nM

SMILES: COc1cc(N2CCC(CN3CCC4(CC3)CN(c3ncnnc3Oc3ccc(F)cc3-c3ccnn3C)C4)CC2)nnc1OC [Compound 92]
IC50 [1]: 10.9 nM
GI50 [2, 3]: 22 nM

SMILES: CCN(C(=O)c1cc(F)ccc1Oc1nncnc1N1CC2(CCN(CC3CCN(C(=O)C4CC(F)(F)C4)CC3)CC2)C1)C(C)C [Compound 6]
IC50 [1]: 6.7 nM
GI50 [2, 3]: 13 nM

SMILES: C=CC(=O)N1CCC(c2ccc(CN3CCC4(CC3)CN(c3ncnnc3Oc3ccc(F)cc3C(=O)N(CC)C(C)C)C4)cc2)CC1 [Compound 182]
IC50 [1]: > 1000 nM
GI50 [2, 3]: 430 nM

SMILES: CCNC(=O)N1CCC(CN2CCC3(CC2)CN(c2ncnnc2Oc2ccc(F)cc2C(=O)N(CC)C(C)C)C3)CC1 [Compound 28]
GI50 [2, 3]: 9 nM

SMILES: COc1cc(N2CCC(CN3CCC4(CC3)CN(c3ncnnc3Oc3ccc(F)c5nn(C(C)C)cc35)C4)CC2)nnc1OC [Compound 105]
IC50 [1]: 483 nM

SMILES: CCN(C(=O)c1cc(F)ccc1Oc1nncnc1N1CC2(CCN(Cc3ccc4[nH]c(C(=O)NC)cc4c3)CC2)C1)C(C)C [Compound 65]
IC50 [1]: 83.9 nM

Second part, the compound after the results:

IC50 [1]: 37.2 nM
GI50 [2, 3]: 156 nM
SMILES: CCN(C(=O)c1cc(F)ccc1Oc1nncnc1N1CC2(CCN(CC3CCN(c4ccc(N)nn4)CC3)CC2)C1)C(C)C [Compound 87]

IC50 [1]: 30 nM
GI50 [2, 3]: 59 nM
SMILES: CCN(C(=O)c1cc(F)ccc1Oc1nncnc1N1CC2(CCN(CC3CCN(c4nnc(OC)cc4OC)CC3)CC2)C1)C(C)C [Compound 96]

IC50 [1]: 37.6 nM
GI50 [2, 3]: 99 nM
SMILES: CCN(C(=O)c1cc(F)ccc1Oc1nncnc1N1CC2(CCN(CC3CCN(C(=O)COC)CC3)CC2)C1)C(C)C [Compound 9]

IC50 [1]: 89.9 nM
GI50 [2, 3]: 37 nM
SMILES: CCN(C(=O)c1cc(F)ccc1Oc1nncnc1N1CC2(CCN(CC3CCN(c4ccc(Br)c(=O)n4C)CC3)CC2)C1)C(C)C [Compound 42]

IC50 [1]: 7.1 nM
GI50 [2, 3]: 12 nM
SMILES: CCN(C(=O)c1cc(F)ccc1Oc1nncnc1N1CC2(CCN(CC3CCN(c4nnc(OC)cc4C)CC3)CC2)C1)C(C)C [Compound 98]

IC50 [1]: 2.6 nM
GI50 [2, 3]: 7 nM
SMILES: CCN(C(=O)c1cc(F)ccc1Oc1nncnc1N1CC2(CCN(CC3CCN(c4ccn5nccc5n4)CC3)CC2)C1)C(C)C [Compound 82]

IC50 [1]: 23 nM
GI50 [2, 3]: 54 nM
SMILES: CCN(C(=O)c1cc(F)ccc1Oc1nncnc1N1CC2(CCN(CC3CCN(C(=O)N(C)C)CC3)CC2)C1)C(C)C [Compound 24]

IC50 [1]: > 200 nM
GI50 [2, 3]: 133 nM
SMILES: CCN(C(=O)c1cc(F)ccc1Oc1nncnc1N1CC2(CCN(CC3CCN(c4cccc(=O)n4C)CC3)CC2)C1)C(C)C [Compound 168]

IC50 [1]: 3.5 nM
GI50 [2, 3]: 4 nM
SMILES: CCN(C(=O)c1cc(F)ccc1Oc1nncnc1N1CC2(CCN(CC3CCN(c4ccn5ncnc5c4)CC3)CC2)C1)C(C)C [Compound 55, 2-((5-(7-((1-([1,2,4]triazolo[1,5-a]pyridin-7-yl)piperidin-4-yl)methyl)-2,7-diazaspiro[3.5]nonan-2-yl)-1,2,4-triazin-6-yl)oxy)-N-ethyl-5-fluoro-N-isopropylbenizamide]

IC50 [1]: 1.5 nM
GI50 [2, 3]: 3 nM
SMILES: CCN(C(=O)c1cc(F)ccc1Oc1nncnc1N1CC2(CCN(CC3CCN(c4ccnc(C(N)=O)c4)CC3)CC2)C1)C(C)C [Compound 151]

IC50 [1]: 54.9 nM
GI50 [2, 3]: 117 nM
SMILES: CCN(C(=O)c1cc(F)ccc1Oc1nncnc1N1CC2(CCN(CC3CCN(c4ccc(=O)n(C)n4)CC3)CC2)C1)C(C)C [Compound 81]

IC50 [1]: 222 nM
SMILES: CCN(C(=O)c1cc(F)ccc1Oc1nncnc1N1CC2(CCN(CC3CCN(C4=NN5CCC(=O)N=C5C=C4)CC3)CC2)C1)C(C)C [Compound 83]
